Test systems include K-562 leukemia; SF-295 CNS; 786-0 renal; HL-60(TB) leukemia; OVCAR-3 ovarian; NCI-H23 lung; SF-539 CNS; SN12C renal; NCI-H460 lung; HCC-2998 colon.
What all share (experiment): inhibition of tumour cell growth, NCI panel, 48 h

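Compound exposure: 48 hours, 5 concentrations, 96-well plates. The concentration for 50% growth inhibition is given as GI50. The concentration for full growth arrest is given as TGI.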

Take `c1ccc(-c2cc3n4c(-c5ccccc5)nn(-c5ccccc5)c4cnc-3n2)cc1`: the GI50 with K-562 leukemia was > 50 µM; with SF-295 CNS, 2.35 µM; in the assay on 786-0 renal, 19.8 µM; with HL-60(TB) leukemia, > 50 µM; with OVCAR-3 ovarian, > 50 µM; in the assay with NCI-H23 lung, > 50 µM. Also, the GI50 in the assay on SF-539 CNS was 13.7 µM; in the assay on SN12C renal it was > 50 µM. Besides, the TGI with K-562 leukemia, in the assay on SF-295 CNS, with 786-0 renal, with HL-60(TB) leukemia, in the assay on OVCAR-3 ovarian and with NCI-H23 lung was > 50 µM each time. For the same molecule, the TGI with SF-539 CNS and with SN12C renal was > 50 µM each time.

Regarding `CC(=O)/C(=C/N1CCN(C(=O)c2ccco2)C1=S)C(=O)c1ccccc1`, the GI50 in the assay on K-562 leukemia is 6.66 µM; with SF-295 CNS it was 19.3 µM; in the assay on 786-0 renal, 11.2 µM; in the assay on HL-60(TB) leukemia, 8.19 µM; in the assay on OVCAR-3 ovarian, 17.2 µM; with SF-539 CNS, 1.09 µM. In addition, the GI50 is 7.04 µM in the assay on NCI-H460 lung and 7.65 µM in the assay on SN12C renal. Also, the TGI was 41.6 µM with K-562 leukemia; > 50 µM with SF-295 CNS; 25.1 µM in the assay with 786-0 renal; 19.3 µM with HL-60(TB) leukemia; > 50 µM in the assay on OVCAR-3 ovarian; 3.56 µM in the assay on SF-539 CNS. The TGI came out at 22.9 µM in the assay with NCI-H460 lung and 15.2 µM in the assay with SN12C renal.

Turning to `CC1=C2C3OC(=O)C(C)C3C(O)C[C@@]2(C)C(=O)CC1` (some centres undefined), the TGI with SF-295 CNS, in the assay on 786-0 renal, with HL-60(TB) leukemia, in the assay on OVCAR-3 ovarian, in the assay on SF-539 CNS and in the assay on HCC-2998 colon was > 100 µM each time. The TGI in the assay with NCI-H460 lung and with SN12C renal was > 100 µM throughout.

`N#CNC1=NCCC(=O)N1CCc1c[nH]c2ccccc12`: the TGI in the assay with K-562 leukemia, in the assay on SF-295 CNS, in the assay with 786-0 renal, in the assay with HL-60(TB) leukemia, with OVCAR-3 ovarian and in the assay on NCI-H23 lung was > 100 µM throughout. Besides, the TGI with SF-539 CNS, in the assay on HCC-2998 colon and in the assay on SN12C renal was > 100 µM in each case.

As to `O=C(CCc1cc(-c2ccc(F)cc2)n[nH]1)N(Cc1ccccc1)Cc1ccccc1`, the TGI in the assay with K-562 leukemia, in the assay with SF-295 CNS, in the assay on 786-0 renal, in the assay with OVCAR-3 ovarian, with NCI-H23 lung and in the assay with SF-539 CNS was > 100 µM throughout. For the same molecule, the TGI with HCC-2998 colon, with NCI-H460 lung and in the assay with SN12C renal was > 100 µM each time.

For `N/C(CC(=O)NOC(=O)c1ccccc1)=N/OC(=O)c1ccccc1`, the TGI was 71.7 µM in the assay with K-562 leukemia; 61.6 µM in the assay with SF-295 CNS; > 100 µM in the assay with 786-0 renal; > 100 µM in the assay with HL-60(TB) leukemia; > 100 µM with OVCAR-3 ovarian; > 100 µM in the assay on NCI-H23 lung. Moreover, the TGI is 54.8 µM with SF-539 CNS, > 100 µM in the assay on NCI-H460 lung and > 100 µM in the assay on SN12C renal.

For the molecule `O/N=C1\C(=C\c2ccc3c(c2)OCCO3)CCCC1C(NO)c1ccc2c(c1)OCCO2` (centres undefined), the TGI with SF-295 CNS was > 100 µM; in the assay with 786-0 renal, > 100 µM; in the assay on HL-60(TB) leukemia, 71 µM; in the assay with OVCAR-3 ovarian, 39.6 µM; in the assay with SF-539 CNS, 26.8 µM; in the assay with HCC-2998 colon it was 65.3 µM. For the same molecule, the TGI is 51.3 µM in the assay with NCI-H460 lung and 29.8 µM with SN12C renal.

For `C[C@H]1CC[C@@H]2[C@@H](C)[C@H]3[C@H](C[C@H]4[C@@H]5CC=C6C[C@@H](O)CC[C@]6(C)[C@H]5CC[C@]34C)N2C1`, the TGI with SF-295 CNS is > 100 µM; in the assay with 786-0 renal, > 100 µM; in the assay with HL-60(TB) leukemia, 54 µM; in the assay with OVCAR-3 ovarian, > 100 µM; in the assay on NCI-H23 lung, > 100 µM; with SF-539 CNS it was > 100 µM. Further, the TGI with HCC-2998 colon, in the assay with NCI-H460 lung and in the assay on SN12C renal was > 100 µM in each case.

As for `CC(=O)[O][Hg][c]1s[c]([Hg][O]C(C)=O)[c]([Hg][O]C(C)=O)[c]1[Hg][O]C(C)=O`, the GI50 in the assay with K-562 leukemia is 1.3 µM; with SF-295 CNS, 13.5 µM; with 786-0 renal, 2.48 µM; with HL-60(TB) leukemia, 5.12 µM; in the assay on OVCAR-3 ovarian it was 21.4 µM; in the assay with NCI-H23 lung it was 19.7 µM. In addition, the GI50 in the assay with HCC-2998 colon is 14.6 µM; in the assay with NCI-H460 lung, 2.35 µM; in the assay with SN12C renal, 8.33 µM. For the same molecule, the TGI in the assay on K-562 leukemia is 18.8 µM; in the assay with SF-295 CNS it was 40.1 µM; in the assay on 786-0 renal, 41.8 µM; with HL-60(TB) leukemia, > 100 µM; in the assay with OVCAR-3 ovarian it was > 100 µM; with NCI-H23 lung, > 100 µM. In addition, the TGI is 40.1 µM in the assay on HCC-2998 colon, > 100 µM with NCI-H460 lung and > 100 µM with SN12C renal.

Regarding `CC1OC(=O)N2CCC=CC12` (centres undefined), the TGI with K-562 leukemia, in the assay on SF-295 CNS, with 786-0 renal, in the assay on OVCAR-3 ovarian, in the assay on NCI-H23 lung and in the assay with SF-539 CNS was > 100 µM each time. Further, the TGI in the assay with NCI-H460 lung and in the assay with SN12C renal was > 100 µM in each case.

`CC1=CC(=O)N2C(OC[C@@H]2c2ccccc2)O1` (some centres undefined): the TGI in the assay on K-562 leukemia, with SF-295 CNS, with 786-0 renal, in the assay with HL-60(TB) leukemia, in the assay with OVCAR-3 ovarian and in the assay with NCI-H23 lung was > 100 µM in each case. In addition, the TGI with SF-539 CNS, in the assay with NCI-H460 lung and in the assay with SN12C renal was > 100 µM throughout.

Regarding `CCOC(=O)CC(C)C1(C=O)CCCCC1=O` (centres undefined), the TGI with K-562 leukemia, in the assay on SF-295 CNS, in the assay on 786-0 renal, in the assay on HL-60(TB) leukemia, with OVCAR-3 ovarian and in the assay with SF-539 CNS was > 100 µM in each case. The TGI in the assay with HCC-2998 colon, in the assay on NCI-H460 lung and with SN12C renal was > 100 µM in each case.

As for `NC(=O)c1nc(-c2ccc(Cl)c(Cl)c2)nc2ccccc12`, the TGI is > 31.6 µM with K-562 leukemia; > 100 µM with SF-295 CNS; > 100 µM in the assay with 786-0 renal; > 100 µM with HL-60(TB) leukemia; > 29.4 µM in the assay with OVCAR-3 ovarian; > 100 µM in the assay on NCI-H23 lung. The TGI in the assay on SF-539 CNS was > 95.5 µM; with NCI-H460 lung, > 100 µM; in the assay with SN12C renal, > 100 µM.

Turning to `C#C[C@@H](CCCC)OC(=O)N[C@H](C)c1ccccc1`, the TGI with K-562 leukemia is > 100 µM; in the assay on SF-295 CNS, > 100 µM; with 786-0 renal it was > 100 µM; in the assay on HL-60(TB) leukemia it was 42 µM; with OVCAR-3 ovarian it was > 100 µM; with NCI-H460 lung, > 100 µM. The TGI in the assay with SN12C renal is > 100 µM.
